Test: Pharmacokinetic study of 153 (and metabolite endothal) in SD rats, iv and po; plasma, liver, brain
Format: in vivo
Settings: for endothal detectable in brain samples: after single iv 153 at 1.25 mg/kg, 1.25 mg/kg
Procedure: The blood, liver and brain tissue samples were collected at predetermined times from rats. […] Compound were diluted shortly before use in 4% sodium bicarbonate for sterile injection (this is the standard pediatric solution of NaHCO3 with a pH of about 8.5).
Compound 153 was freshly prepared by diluting the drugs shortly before use in 4% sodium bicarbonate for sterile injection (this is the standard pediatric solution of NaHCO3 with a pH of about 8.5). The final concentrations of 153 solutions were 0.25 mg/mL. The 153 solutions were administered via iv or po route at dose volume of 5 ml/kg according to the latest body weight. Compound 157 was freshly prepared by diluting the drugs shortly before use in 4% sodium bicarbonate for sterile injection (this is the standard pediatric solution of NaHCO3 with a pH of about 8.5). The final concentrations of […] solutions were 0.3 mg/mL. The 157 solutions were administered via iv or po route at dose volume of 5 ml/kg according to the latest body weight.
Twelve (12) female SD rats per group were dosed by iv with 153 or 157. The rats were fasted overnight prior to dosing, with free access to water. Foods were withheld for 2 hours post-dose. Blood, liver and brain tissue samples in two animals each group were collected at each time point, within 10% of the scheduled time for each time point. Two extra animals were used for analytic method development.
Blood (>0.3 mL) were collected via aorta abdominalis in anaesthetic animals into tubes containing heparin at 15 min, 1, 2, 6, 10 and 24 hours after iv administration. Liver and brain tissues were collected immediately after animal death. The liver and brain tissues were excised and rinsed with cold saline to avoid blood residual. Upon collection, each sample was placed on ice and the blood samples were subsequently centrifuged (4° C., 11000 rpm, 5 min) to separate plasma. The obtained plasma, liver and brain tissue samples were stored at −70° C. until LC-MS/MS analysis.
Two (2) female SD rats per group were dosed by po with 153 or 157. The rats were fasted overnight prior to dosing, with free access to water. Foods were withheld for 2 hours post-dose. Blood samples (>0.3 mL) were collected via aorta abdominalis in anaesthetic animals into tubes containing heparin at 30 min, 1, 2, 6, 10 and 24 hours after po administration.
To each sample, 20 μL IS-D (for blank samples, 20 μL acetonitrile:water (1:1) was added) and 300 μl acetonitrile was added. The sample mixture was vortexed for approximately 3 min. After centrifugation at 10000 rpm for 5 min at 4° C., 100 μL of the upper layer was transferred to a new tube and added 200 μL 0.4% formic acid in water (pH 6.0). The mixture was vortexed for approximately 3 min before injected onto the LC/MS/MS system for analysis.
On the day of the assay, the frozen liver and brain samples were thawed unassisted at room temperature. An about 200 mg weighed sample of each thawed tissue was placed into a plastic tube with water (0.6 mL) to facilitate homogenization. Tissue processing was conducted using a homogenizer for approximately 1 min, 200 μl homogenate was transferred into a fresh Eppendorf tube. To each tube, 50 μL IS-D was added and mixed. Then 600 μl acetonitrile was added and the sample mixture was vortexed for approximately 3 min. After centrifugation at 10000 rpm for 5 min at 4° C., 400 μL of the upper layer was transferred to a new tube and evaporate the supernatant to dryness at 35° C. Reconstitute the residue with 200 μL of 0.4% formic acid in water (pH6.0), and vortex for 3 min, submit for LC-MS/MS analysis.
Frozen unknown plasma samples were completely thawed at room temperature and vortexed thoroughly. With a pipette, 50 μL of plasma was transferred into a 2.0 mL Eppendorf tube. 50 μL of 0.1N HCl and 800 μL ethyl acetate were added into each sample. The sample mixture was vortexed for approximately 3 min.

With O=C(O)C1C2CCC(O2)C1C(=O)O (stereo not drawn) [Endothal, 7-oxabicyclo[2.2.1]heptane-2,3-dicarboxylic acid] as the compound, how does the Endothal plasma concentration (after iv 153, 10 hr, Rat 2) read?
Its Endothal plasma concentration is “BLQ”.

What about the Endothal plasma concentration (after iv 153, 24 hr, Rat 1) of the same compound?
Its Endothal plasma concentration is “BLQ”.

What about the Endothal plasma concentration (after iv 153, 24 hr, Rat 2) of the same compound?
The Endothal plasma concentration was “BLQ”.

What about the Endothal plasma concentration (after po 153, 10 hr, Rat 1) of the same compound?
Its Endothal plasma concentration is “BLQ”.

What about the “endothal detectable in brain samples” value of the same compound?
Its value is “undetectable”.

What about the “endothal detectable in brain samples” value (listed as endothal) of the same compound?
Its value is “not detectable”.
